Key:
[1] = test system: double stranded oligonucleotide CAATCGGATCGAATTCGATCCGATTG; test: DNA intercalation by FID (Fluorescence Intercalator Displacement, thiazole orange); assay type: binding; conditions: 10 μM compound
Method: (§1) 1. Materials and Methods • Effect of compounds of formula (I) on CK2 activity is measured according to Prudent et al. (Prudent, R. et al. (2008) Mol Cell Biochem 316(1-2): 71-85): compounds were tested in a radioactive assay performed in a final volume of 18 μL containing 3 μL of compounds at the indicated concentrations, 3 μL, of CK2α (36 ng) and a mixture containing 100 μM of peptide substrate ([…], SEQ ID No: 1), 10 mM MgCl2, and 100 μM [γ-^32P]-ATP. Assays were performed at room temperature for 5 min before termination by the addition of 60 μL of 4% TCA. ^32P incorporation into the peptide substrate was determined as previously described in Filhol et al. (Biochemistry 29: 9928-36, 1990). • Effect of compounds of formula (I) on c-kit activity is measured according to the manufacturer's recommendations (Millipore, reference 14-559): in a final reaction volume of 25 μL, c-Kit (5-10 mU) is incubated with 8 mM MOPS pH 7.0, 0.2 mM EDTA, 10 mM MnCl2, 25 μM ATP, 0.1 mg/mL poly(Glu, Tyr) 4:1, 10 mM MgAcetate and [γ-33P-ATP] […] Following an incubation of 30 minutes at 37° C., reaction mixture is resolved on an agarose gel (1% agarose) and DNA topoisomers are quantified by densitometric analysis. • Effect of compounds of formula (I) on DNA intercalation. DNA intercalation was performed using FID (Fluorescence Intercalator Displacement). […] In this assay, compound auto-fluorescence was negative.

HeLa cells [2] = test: cell cycle distribution analysis (propidium iodide), HeLa; assay type: cell-based, human; conditions: 5 μM, 24 hours
Method: (§2) Cells previously treated with Compound 1 and Compound 2 in example 4 are then submitted to a cell cycle analysis following propidium iodide incorportation.
(§3) Cell cycle distribution analysis: cells were plated in 6-well plates. The following day, cells were treated with 5 μM compounds or an equivalent amount of DMSO. After 24 hours, cells were harvested, fixed with ethanol 70% for 30 minutes, and labeled with propidium iodide 10 μg/mL for 30 min. DNA content was analysed with FACScalibur and Cell Quest software.

c-Kit = biological target: T1, c-Kit (Homo sapiens, UniProt P10721); test: c-kit kinase activity assay (Millipore 14-559); assay type: biochemical; conditions: 10 μM compound
T1 construct: purchased Millipore 14-559
T1 sequence (P10721 26-976): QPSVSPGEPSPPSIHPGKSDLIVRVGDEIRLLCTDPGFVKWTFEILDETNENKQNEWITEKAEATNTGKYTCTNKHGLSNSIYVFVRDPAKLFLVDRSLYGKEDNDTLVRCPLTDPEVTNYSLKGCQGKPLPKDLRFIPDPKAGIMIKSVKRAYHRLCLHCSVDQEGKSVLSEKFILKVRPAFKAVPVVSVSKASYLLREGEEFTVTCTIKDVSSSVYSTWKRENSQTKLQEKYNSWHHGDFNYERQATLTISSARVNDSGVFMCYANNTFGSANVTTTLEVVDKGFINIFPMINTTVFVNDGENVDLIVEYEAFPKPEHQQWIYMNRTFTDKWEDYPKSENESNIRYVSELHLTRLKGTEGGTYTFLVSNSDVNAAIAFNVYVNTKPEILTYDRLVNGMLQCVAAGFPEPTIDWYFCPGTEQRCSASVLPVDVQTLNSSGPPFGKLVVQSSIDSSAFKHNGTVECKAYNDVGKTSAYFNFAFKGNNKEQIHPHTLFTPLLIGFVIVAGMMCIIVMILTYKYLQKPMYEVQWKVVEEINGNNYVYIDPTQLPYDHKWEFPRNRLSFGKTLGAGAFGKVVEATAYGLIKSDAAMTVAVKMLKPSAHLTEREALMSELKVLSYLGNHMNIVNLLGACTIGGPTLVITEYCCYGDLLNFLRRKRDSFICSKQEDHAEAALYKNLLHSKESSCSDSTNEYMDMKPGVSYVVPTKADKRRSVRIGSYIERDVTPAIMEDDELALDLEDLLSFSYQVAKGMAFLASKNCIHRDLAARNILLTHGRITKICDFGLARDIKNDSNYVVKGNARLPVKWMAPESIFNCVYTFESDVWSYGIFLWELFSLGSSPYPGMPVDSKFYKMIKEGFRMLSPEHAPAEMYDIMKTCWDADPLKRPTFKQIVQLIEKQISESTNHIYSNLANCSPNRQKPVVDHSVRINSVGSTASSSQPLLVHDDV
Method: as §1

HeLa cells [3] = test: inhibition of HeLa cell proliferation (CellTiter-Glo viability); assay type: cell-based, human; conditions: 48 hours treatment, FIG. 3
Method: (§4) 1. […] The following day, the culture medium was replaced with fresh medium (Dulbecco's medium, Invitrogen Life Technologies, Inc., supplemented with 10% (v/v) fetal calf serum (FBS, BioWest)), containing increasing concentration of inhibitors or an equivalent amount of DMSO as control. Two days later, cell viability was measured with the CellTiter-Glo® Luminescent Cell Viability Assay (Promega) according to the manufacturer recommendations. • The inhibition of U373 cells proliferation is assessed with the same protocol that HeLa cells: one day after plating, U373 cells are treated with 5 μM of Compound 1, Compound 2 or DMSO. Results are given relative to the luminescence recorded for DMSO.

U373 cells [4] = test: in vivo inhibition of tumour growth, U373 xenograft in athymic nude mice
Method: All experimental procedures adhered to local ethical committee (Comité régional d'éthique pour l'Expérimentation animale CREEA, Rhône Alpes—protocol n°286). Female Harlan athymic nude mice (6-8 weeks) were inoculated s.c. into the right flank with 7.5×10^5 U373 cells. When tumors reaches±50 mm^3 (volume=length×width×height), animals were treated i.p. 3 times weekly (every two days) for 2 weeks, with Compound 1 (0.14 mg/100 μL/injection-4 mice) dissolved in PEG3350 22.5%, BSA 0.45% or equivalent DMSO (10% final-3 mice) dissolved in same buffer (control group). Body weight and tumor volume were determined twice weekly. The experiment was terminated when tumor volume was about 1000 mm^3. Results are presented as mean±standard error of the mean (SEM).

CK2α = CK2α (Homo sapiens, UniProt P68400); test: CK2 radioactive kinase assay (32P incorporation into peptide substrate); assay type: biochemical; conditions: 100 μM ATP; for % remaining CK2 activity (10 μM): 10 μM compound
Sequence of CK2α (P68400 whole entry): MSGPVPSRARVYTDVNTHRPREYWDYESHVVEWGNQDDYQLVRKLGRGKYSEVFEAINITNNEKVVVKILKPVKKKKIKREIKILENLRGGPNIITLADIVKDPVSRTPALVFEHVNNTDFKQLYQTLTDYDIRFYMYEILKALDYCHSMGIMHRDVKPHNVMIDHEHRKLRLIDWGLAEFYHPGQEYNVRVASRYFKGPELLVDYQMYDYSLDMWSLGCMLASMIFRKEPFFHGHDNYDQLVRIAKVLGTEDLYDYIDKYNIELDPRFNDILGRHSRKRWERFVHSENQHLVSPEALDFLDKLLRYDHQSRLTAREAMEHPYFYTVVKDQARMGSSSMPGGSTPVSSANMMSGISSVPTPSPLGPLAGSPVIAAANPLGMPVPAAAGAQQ
Method: 1. Materials and Methods • Effect of compounds of formula (I) on CK2 activity is measured according to Prudent et al. (Prudent, R. et al. (2008) Mol Cell Biochem 316(1-2): 71-85): compounds were tested in a radioactive assay performed in a final volume of 18 μL containing 3 μL of compounds at the indicated concentrations, 3 μL, of CK2α (36 ng) and a mixture containing 100 μM of peptide substrate ([…], SEQ ID No: 1), 10 mM MgCl2, and 100 μM [γ-^32P]-ATP. Assays were performed at room temperature for 5 min before termination by the addition of 60 μL of 4% TCA. ^32P incorporation into the peptide substrate was determined as previously described in Filhol et al. (Biochemistry 29: 9928-36, 1990). • Effect of compounds of formula (I) on c-kit activity is measured according to the manufacturer's recommendations (Millipore, reference 14-559): in a final reaction volume of 25 μL, c-Kit (5-10 mU) is incubated with 8 mM MOPS pH 7.0, 0.2 mM EDTA, 10 mM MnCl2, 25 μM ATP, 0.1 mg/mL poly(Glu, Tyr) 4:1, 10 mM MgAcetate and [γ-33P-ATP] (specific activity approx. 500 cpm/pmol, concentration as required). The reaction is initiated by the addition of the MgATP mix. After incubation for 40 minutes at room temperature, the reaction is stopped by the addition of 5 μL of a 3% phosphoric acid solution. 10 μL of the reaction is then spotted onto a Filtermat A and washed three times for 5 minutes in 75 mM phosphoric acid and once in methanol prior to drying and scintillation counting. • Effect of compounds of formula (I) on topoisomerase II activity is measured according to the manufacturer's recommendations (Vaxron, TA-001): in a final reaction volume of 10 μL, 1U topoisomerase IIα is incubated with 0.1M Tris-HCl, pH 8.0, 2 mM DTT, 20 mM MgCl2, 4 mM ATP, 0.2 M NaCl, 2 μg BSA, 500 ng Kinetoplast DNA and compounds to be assayed (from 10 mM stock solution in DMSO, final concentration of DMSO<1%). The reaction is initiated by the addition of topoisomerase IIα. After incubation for 15 min at 37° C., reaction is stopped by addition of 1 μL of stop solution (3% SDS, 1.5 mg·mL^−1 Proteinase K). Following an incubation of 30 minutes at 37° C., reaction mixture is resolved on an agarose gel (1% agarose) and DNA topoisomers are quantified by densitometric analysis. • Effect of compounds of formula (I) on DNA intercalation. DNA intercalation was performed using FID (Fluorescence Intercalator Displacement). This assay based on the loss of fluorescence of a DNA-bound intercalator (thiazole orange) upon displacement by a DNA-binding molecule. Briefly, the double stranded oligonucleotide […] […] After 20 minutes incubation, fluorescence is measured (excitation: 490 nm, emission: 520 nm). In this assay, compound auto-fluorescence was negative.

U373 cells [5] = test: colony formation assay by soft agar culture; assay type: cell-based; conditions: Homo sapiens, U373 MG, 360 h, 15 days
Method: The effect of compound on tumor cell tumorigenesis is tested on a colony formation assay.
The inhibition of colony formation assay by soft agar culture is performed as follows: U373 cells were poured on a 0.6% agar-DMEM-10% FBS layer, imbedded in 0.3% agar-DMEM-10% FBS, containing compounds (5 μM) or equivalent amount of DMSO. Number of colonies (more than 20 cells) was counted 15 days later in 10 fields/well. Experiment was done in duplicate at least twice.

topoisomerase IIα = biological target: T2, topoisomerase IIα (Homo sapiens, UniProt P11388); test: topoisomerase II activity assay (kinetoplast DNA, Vaxron TA-001); assay type: biochemical; conditions: 10 μM compound
T2 construct: purchased Vaxron TA-001
T2 sequence (P11388 whole entry): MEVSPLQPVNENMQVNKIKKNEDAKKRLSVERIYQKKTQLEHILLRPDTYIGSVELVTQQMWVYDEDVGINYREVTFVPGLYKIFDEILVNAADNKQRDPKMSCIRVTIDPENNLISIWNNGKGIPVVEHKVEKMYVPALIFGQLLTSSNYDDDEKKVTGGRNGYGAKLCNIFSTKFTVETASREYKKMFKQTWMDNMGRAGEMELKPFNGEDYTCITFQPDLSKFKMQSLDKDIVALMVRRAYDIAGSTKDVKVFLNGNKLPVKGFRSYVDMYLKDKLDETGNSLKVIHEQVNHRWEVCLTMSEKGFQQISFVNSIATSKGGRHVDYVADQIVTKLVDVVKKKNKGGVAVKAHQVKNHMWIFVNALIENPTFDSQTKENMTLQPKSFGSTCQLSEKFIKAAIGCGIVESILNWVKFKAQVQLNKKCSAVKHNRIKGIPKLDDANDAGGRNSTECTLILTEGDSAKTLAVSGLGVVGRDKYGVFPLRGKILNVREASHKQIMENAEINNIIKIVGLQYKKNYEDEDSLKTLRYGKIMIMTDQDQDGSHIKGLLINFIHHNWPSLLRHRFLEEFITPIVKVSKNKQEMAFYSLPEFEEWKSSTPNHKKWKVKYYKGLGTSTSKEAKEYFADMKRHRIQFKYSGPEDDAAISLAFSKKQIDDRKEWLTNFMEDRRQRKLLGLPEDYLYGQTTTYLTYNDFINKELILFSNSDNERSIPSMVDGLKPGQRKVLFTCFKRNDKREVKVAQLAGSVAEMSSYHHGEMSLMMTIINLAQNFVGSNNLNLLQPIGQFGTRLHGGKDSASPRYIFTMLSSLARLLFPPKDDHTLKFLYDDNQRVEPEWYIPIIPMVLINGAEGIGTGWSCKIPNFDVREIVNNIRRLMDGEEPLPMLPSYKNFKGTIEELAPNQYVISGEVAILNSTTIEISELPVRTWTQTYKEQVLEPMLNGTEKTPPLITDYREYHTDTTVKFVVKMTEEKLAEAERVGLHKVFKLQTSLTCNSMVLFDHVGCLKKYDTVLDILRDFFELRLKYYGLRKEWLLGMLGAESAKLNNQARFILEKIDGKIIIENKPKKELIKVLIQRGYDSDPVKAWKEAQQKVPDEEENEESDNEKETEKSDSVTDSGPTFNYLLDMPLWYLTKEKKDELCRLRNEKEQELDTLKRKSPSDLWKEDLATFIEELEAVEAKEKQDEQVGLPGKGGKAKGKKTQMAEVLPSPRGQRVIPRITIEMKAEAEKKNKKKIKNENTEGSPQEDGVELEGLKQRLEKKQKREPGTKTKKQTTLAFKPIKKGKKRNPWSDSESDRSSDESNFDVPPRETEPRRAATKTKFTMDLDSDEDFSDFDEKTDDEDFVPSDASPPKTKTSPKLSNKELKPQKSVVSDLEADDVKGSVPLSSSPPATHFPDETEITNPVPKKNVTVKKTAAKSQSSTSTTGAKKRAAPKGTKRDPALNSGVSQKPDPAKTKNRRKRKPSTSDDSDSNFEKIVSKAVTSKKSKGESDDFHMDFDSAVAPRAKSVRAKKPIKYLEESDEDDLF
Method: as §1

U373 cells [6] = test: cell cycle distribution analysis (propidium iodide), U373; assay type: cell-based, human; conditions: 5 μM, 24 hours
Method: as §2, §3

U373 cells [7] = test: inhibition of U373 cell proliferation (CellTiter-Glo viability); assay type: cell-based, human; conditions: 5 μM, 48 hours treatment, FIG. 4
Method: as §4

CK2 = test: cellular CK2 activity assay (YFP-based CK2 activity reporter in HeLa cells); assay type: cell-based, human; conditions: 24 hours incubation, FIGS. 2A and 2B
Method: Cellular CK2 activity assay: The plasmid pEYFPc1 expressing a chimeric YFP-based CK2 activity reporter was designed by adding six CK2 consensus phosphorylation sites at the C terminus of the YFP protein (pEYFPc1-SβS). pEYFPc1-SβS was obtained from pEYFPc1-CK2β after two subsequent rounds of mutations with the Quickchange-Site Directed mutagenesis kit (Stratagene) using for mutagenesis 1:
Then, the cells were collected and the washed pellets were solubilized for […] in ice with 100μΛ of lysis buffer (Tris 50 mM pH=7.4, 0.15 M NaCl, EDTA 2 mM, Triton X100 1/100, phosphatase inhibitor cocktail 2 (Sigma) 1/100, and leupeptine, aprotinine, AEBSF according to the manufacturer recommendations).

| SMILES | % DNA intercalation (10 μM) [1] [%] | apoptotic cells (HeLa cells [2]) | cell cycle effect (HeLa cells [2]) | % remaining c-kit activity (10 μM) (c-Kit) [%] | inhibition of HeLa cell proliferation (HeLa cells [3]) | tumor size, times smaller than DMSO group (U373 cells [4]; 15 days post first compound injection, i.p. 0.14 mg/injection) [times] | tolerability (U373 cells [4]; at the doses applied) | variations in body weight (U373 cells [4]; i.p. 0.14 mg/injection, 3 times weekly for 2 weeks) | tumor incidence compared to DMSO (U373 cells [4]; i.p. 0.14 mg/injection, 3 times weekly for 2 weeks, all time points) | % remaining CK2 activity (10 μM) (CK2α) [%] | IC50 (CK2α) [nM] | inhibition at 5 µM (U373 cells [5]) [%] | % remaining topoisomerase II activity (10 μM) (topoisomerase IIα) [%] | cell cycle effect (U373 cells [6]) | reduction of U373 cell proliferation (U373 cells [7]) | phosphorylated CK2 reporter isoform (CK2) |
| --- | --- | --- | --- | --- | --- | --- | --- | --- | --- | --- | --- | --- | --- | --- | --- | --- |
| Cc1cnc(Cl)c2c1[nH]c1c3ccc(O)cc3ccc12 [Compound 1] | 62.0 | concomitant increase of apoptotic cells | cell cycle arrest with a substantial accumulation in G2/M-phase | 60.4 | strong inhibition of tumour cell proliferation even at low doses | 4.7 | well tolerated | not statistically significant | significantly reduced | 1.4 | 1500 | 50 | 106.8 | cell cycle arrest with a substantial accumulation in G2/M-phase | potent to reduce cell proliferation | disappeared in a dose-dependent manner |
| Cc1cnc(Cl)c2c1[nH]c1ccc3cc(O)ccc3c12 [Compound 2] | 66.4 | concomitant increase of apoptotic cells | cell cycle arrest with a substantial accumulation in G2/M-phase | 16.9 | strong inhibition of tumour cell proliferation even at low doses |  |  |  |  | 3.5 | 670 |  | 77 | cell cycle arrest with a substantial accumulation in G2/M-phase | potent to reduce cell proliferation | disappeared in a dose-dependent manner |

Reference: US8686144B2, “Condensed pyridine derivatives useful as potent inhibitors of the protein kinase CK2” (Commissariat a l'Energie Atomique et aux Energie Alternative, priority 2009, dated 2014)
